In patent US20260139314A1, “COMPOSITION AND METHOD FOR PREDICTING SULFONYLUREA DEPENDENCY USING GIPR MARKER” (Seoul National University Hospital, priority 2022, published 2026):

Assays:
[1] = test system: INS1 rat insulinoma cells; assay: Insulin secretion stimulated with low-dose SU (50 nM glimepiride, ELISA); format: cell-based; details: non-diabetic conditions; GIPR inhibitor 100 nM, 24 h; 50 nM glimepiride for 30 minutes
Procedure: INS1 rat insulinoma cells were transfected with siGipr and siNS (80 nM) and stimulated for insulin secretion with low-dose SU (50 nM glimepiride for 30 minutes). Insulin secretion was measured using an ELISA kit.
(a) Physiological condition (b) Diabetic condition simulated by pre-treating with 15-mM glucose and 150-μM palmitic acid for 24 hours (glucolipotoxicity).
(§1) INS1 rat insulinoma cells were treated with a GIPR inhibitor (rat GIP(3-30), 100 nM, 24 h) and the inhibition of insulin secretion by GIP was confirmed. Insulin secretion was stimulated with low-dose SU (50 nM glimepiride for 30 minutes) and measured using an ELISA kit.
Next, the SU response was examined based on Gipr suppression. […] However, under diabetic conditions—chronic exposure to high glucose and fatty acids (glucolipotoxicity)—Gipr suppression increased insulin secretion in response to low-dose SU (FIG. 4b).

[2] = test system: INS1 rat insulinoma cells; assay: GIP-induced insulin secretion (ELISA); format: cell-based; details: GIPR inhibitor 100 nM, 24 h
Procedure: INS1 rat insulinoma cells were transfected with 80-nM siRNA for Gipr and negative control.
(c) ELISA: Insulin secretion induced by GIP treatment (50 nM for 1 hour) was attenuated by siGipr. • siGipr, siRNA for Gipr; siNS, siRNA for negative control; siRNA, small interfering RNA; NS, no significant difference
as §1
Experiments were conducted to suppress the expression of the rat Gipr gene, which shares the same gene sequence as human GIPR.

rat GIP(3-30)
Insulin secretion by SU [1]: trend of enhanced insulin secretion
Inhibition of insulin secretion by GIP [2]: confirmed
